# Test results published in patent US20090203644A1, “Compositions for treating and/or preventing diseases characterized by the presence of metal ions” (GrenPharma LLC, priority 2004, published 2009).
# “Also recorded” adds a separate entry of the source. Read-outs that look alike come from different tables or passages of the source.
# Key:
# NF-M17 = molecular target: T1, NF-M17 (Homo sapiens, UniProt P07197); assay: CD titration: restoration of the CD spectrum of NF-M17 exposed to aluminum; type: biochemical
# T1 construct: a seventeen amino acid region of the human neurofilament mid-sized subunit protein, NF-M17; host or cells: chemical synthesis
# A-beta1-42 peptide = A-beta1-42 peptide (Homo sapiens, UniProt P05067); assay: CD: reversal of the aluminum effect on the A-beta1-42 peptide spectrum (Example 3); type: biochemical
# Caco-2 cells [1] = settings: Caco-2
# Caco-2 cells [2] = tested on: Caco-2 cells
# A-beta peptide fragment = A-beta peptide fragment (Homo sapiens, UniProt P05067); assay: CD helix-coil reversal and pretreatment experiments (Example 11); type: biochemical
# A-beta peptide = tested on: A-beta peptide; parameters: species or system human
# Sequence of A-beta1-42 peptide (P05067 672-713): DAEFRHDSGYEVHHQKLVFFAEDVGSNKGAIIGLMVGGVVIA
# Sequence of A-beta peptide fragment (P05067 672-713): as above
compound,measurement,setting,value
"NCCC[Si](O)(O)O [APST, 3-aminopropylsilantriol]",Restore original spectra?,NF-M17,Yes
same,chelation of aluminum compared to sodium orthosilicate,NF-M17,improved chelation of aluminum
"CC(C)(C)[Si](C)(C)O [TBDMS, tert-butyldimethylsilanol]",Restore original spectra?,NF-M17,did not restore and No
"CC[Si](O)(CC)Cc1ccccc1 [BDS, benzyldiethylsilanol]",Restore original spectra?,NF-M17,did not restore and No
"CC(=O)O[Si](OC(C)=O)(OC(C)=O)OC(C)=O [TAS, tetraacetooxysilane]",restoration of the original CD spectrum of the peptide after exposure to aluminum,A-beta1-42 peptide; 8 to 12 equivalents of aluminum,at least partially restored
triethoxysilylbutyronitrile,restoration of the original CD spectrum of the peptide after exposure to aluminum,A-beta1-42 peptide,reverses aluminum-induced denaturation
same,crossing of the epithelial barrier in the Caco-2 model,Caco-2 cells [1],crossed the epithelial barrier efficiently
same,permeation across Caco-2 cells compared with mannitol,Caco-2 cells [1],at least four times greater
"C1CC[Si]2(CCCCO2)OC1 [SDSU, 1,7-dioxa-6-sila-spiro[5.5]undecane]",transport across the Caco-2 cells,Caco-2 cells [2],significant amount of transport
same,restoration of the original CD spectrum of the peptide after exposure to aluminum,A-beta1-42 peptide,at least partially restored
"CC[Si](O)(CC)CC [TES, triethylsilanol]",restoration of the original CD spectrum of the peptide after exposure to aluminum,A-beta1-42 peptide,at least partially restored
same,Restore original spectra?,NF-M17,did not restore and No
"CCCCCC[Si](C)(Cl)Cl [HMDS, hexylmethyldichlorosilane]",restoration of the original CD spectrum of the peptide after exposure to aluminum,A-beta1-42 peptide,at least partially restored
same,Restore original spectra?,NF-M17,Yes
same,equivalents at which the CD spectrum of NF-M17/aluminum is restored to (similar to) its original shape,NF-M17,around 32 equivalents
(dichloro)methylsilylbutyronitrile [DCMSBN],"transport across Caco-2 cells, FIG. 29B compounds compared with FIG. 29A compounds",Caco-2 cells [2],more transport
same,transport across the Caco-2 cells,Caco-2 cells [2],significant amount of transport
same,restoration of the original CD spectrum of the peptide after exposure to aluminum,A-beta1-42 peptide,at least partially restored
same,Restore original spectra?,NF-M17,Yes
same,equivalents at which the CD spectrum of NF-M17/aluminum is restored to (similar to) its original shape,NF-M17,around 32 equivalents
Trihydroxysilylmethyl phosphonate,permeation across Caco-2 cells compared with mannitol,Caco-2 cells [1],slower permeation
trihydroxysilylmethyl phosphonate,crossing of the epithelial barrier in the Caco-2 model,Caco-2 cells [1],permeated less efficiently
trihydroxysilylmethyl phosphonate [TSMP],Cell Permeation Coefficient (cm/sec) MDCK,MDCK cells,5.4e-07 cm/s
same,"Total Permeation Coefficient (cm/sec) Mean ± SD, where applicable, MDCK",MDCK cells,5.2 ± 7.0 × 10^−7 cm/sec
same,permeation across MDCK cells compared with mannitol,MDCK cells,slower permeation
same,Cell Permeation Coefficient (cm/sec) Caco-2,Caco-2 cells [1],2e-07 cm/s
same,"Permeation Coefficient (cm/sec) Mean ± SD, where applicable",Caco-2 cells [1],1.9 ± 1.5 × 10^−7 cm/sec
same,"Total Permeation Coefficient (cm/sec) Mean ± SD, where applicable, Caco-2",Caco-2 cells [1],1.9 ± 1.5 × 10^−7 cm/sec
same,permeation across Caco-2 cells compared with mannitol,Caco-2 cells [1],slower permeation
"O[Si](O)(c1ccccc1)c1ccccc1 [DPSD, diphenylsilandiol]",Restore original spectra?,"NF-M17; CD spectrum of NF-M17 with 8 equivalents of aluminum, titration up to 32 equivalents",did not restore; also recorded: (DMSO interfered with spectra)
triethoxysilylpropionitrile [TESP],restoration of the original CD spectrum of the peptide after exposure to aluminum,A-beta1-42 peptide,at least partially restored
sodium orthosilicate [reference compound],restoration of the original CD spectrum of the peptide after exposure to aluminum,A-beta1-42 peptide,at least partially restored
same,equivalents at which some return / beginning of return of the CD curve to its original shape is seen,NF-M17,4 equivalents
same,equivalents at which the CD spectrum of NF-M17/aluminum is restored to (similar to) its original shape,NF-M17,around 16 equivalents
"C[Si](Cl)(Cl)CC[Si](C)(Cl)Cl [1,2-(methyldichlorosilyl)ethane]",permeation across Caco-2 cells compared with mannitol,Caco-2 cells [1],at least four times greater
sodium metasilicate nonahydrate [reference compound],equivalents at which some return / beginning of return of the CD curve to its original shape is seen,NF-M17,about 32 equivalents
"CCC(C#N)C[Si](C)(Cl)Cl (stereo not drawn) [CBMS, 2-cyanobutylmethyldichlorosilane]",recovery of helicity in Al-denatured peptide / reversal of aluminum-induced denaturation (CD),A-beta peptide fragment,appeared to reverse aluminum-induced denaturation
same,total extracted,A-beta peptide,3.6 fmol
same,"Total Permeation Coefficient (cm/sec) Mean ± SD, where applicable, MDCK",MDCK cells; dog,1.5e-06 cm/s
same,"Permeation Coefficient (cm/sec) Mean ± SD, where applicable",Caco-2 cells [1]; human,6.5e-06 cm/s
same,"Total Permeation Coefficient (cm/sec) Mean ± SD, where applicable, Caco-2",Caco-2 cells [1]; human,6.5e-06 cm/s
"CN(C)[Si](N(C)C)(N(C)C)N(C)C [tetrakis, tetrakis(dimethylamino)silane]",restoration of the original CD spectrum of the peptide after exposure to aluminum,A-beta1-42 peptide,at least partially restored
dichlorosilacyclobutane [DCSCB],transport across the Caco-2 cells,Caco-2 cells [2],significant amount of transport
same,restoration of the original CD spectrum of the peptide after exposure to aluminum,A-beta1-42 peptide,at least partially restored
"CC(C#N)C[Si](C)(Cl)Cl (stereo not drawn) [CPMS, 2-cyanopropylmethyldichlorosilane]",recovery of helicity in Al-denatured peptide / reversal of aluminum-induced denaturation (CD),A-beta peptide fragment,appeared to reverse aluminum-induced denaturation
same,total extracted,A-beta peptide,5.3 fmol
same,"Total Permeation Coefficient (cm/sec) Mean ± SD, where applicable, MDCK",MDCK cells; dog,1.2e-06 cm/s
same,permeation across Caco-2 cells compared with mannitol,Caco-2 cells [1],approximately three times more efficiently
same,"Permeation Coefficient (cm/sec) Mean ± SD, where applicable",Caco-2 cells [1]; human,6.1 ± 1.7 × 10^−6 cm/sec
same,"Total Permeation Coefficient (cm/sec) Mean ± SD, where applicable, Caco-2",Caco-2 cells [1]; human,6.1 ± 1.7 × 10^−6 cm/sec
"N#CCCC[Si](Cl)(Cl)Cl [CPTCS, 3-cyanopropyltrichlorosilane]",restoration of the original CD spectrum of the peptide after exposure to aluminum,A-beta1-42 peptide,able to restore the CD spectrum
same,reversal of the effects of aluminum on the CD spectrum of the peptide,A-beta1-42 peptide,Moderate reversal; also recorded: almost full reversal
same,Restore original spectra?,NF-M17,Yes
same,equivalents at which the CD spectrum of NF-M17/aluminum is restored to (similar to) its original shape,NF-M17,around 32 equivalents
"CC[Si](Cl)(Cl)CC [DCDES, dichlorodiethylsilane]",restoration of the original CD spectrum of the peptide after exposure to aluminum,A-beta1-42 peptide,at least partially restored
same,Restore original spectra?,NF-M17,Yes
same,equivalents at which the CD spectrum of NF-M17/aluminum is restored to (similar to) its original shape,NF-M17,around 32 equivalents
"C[Si](Cl)(Cl)c1ccccc1 [MPDS, methylphenyldichlorosilane]",Restore original spectra?,NF-M17,Yes
same,equivalents at which the CD spectrum of NF-M17/aluminum is restored to (similar to) its original shape,NF-M17,around 32 equivalents
"CCCCCCCC[Si](Cl)(Cl)Cl [OTCS, n-octyltrichlorosilane]",Restore original spectra?,NF-M17,did not restore; also recorded: (gelation of OTCS)
"CC(C)[Si](Cl)(Cl)C(C)C [DCDIPS, dichlorodiisopropylsilane]",restoration of the original CD spectrum of the peptide after exposure to aluminum,A-beta1-42 peptide,at least partially restored
same,Restore original spectra?,NF-M17,Yes
same,equivalents at which the CD spectrum of NF-M17/aluminum is restored to (similar to) its original shape,NF-M17,around 32 equivalents
triethoxysilylbutyronitrile [TESB],"transport across Caco-2 cells, FIG. 29B compounds compared with FIG. 29A compounds",Caco-2 cells [2],more transport
same,transport across the Caco-2 cells,Caco-2 cells [2],significant amount of transport
same,restoration of the original CD spectrum of the peptide after exposure to aluminum,A-beta1-42 peptide,at least partially restored
same,recovery of helicity in Al-denatured peptide / reversal of aluminum-induced denaturation (CD),A-beta peptide fragment,appeared to reverse aluminum-induced denaturation
same,Cell Permeation Coefficient (cm/sec) MDCK,MDCK cells,2.7e-05 cm/s
same,"Total Permeation Coefficient (cm/sec) Mean ± SD, where applicable, MDCK",MDCK cells,2.2 ± 1.4 × 10^−5 cm/sec
same,"cell permeation coefficient compared with mannitol, MDCK",MDCK cells,at least ten times greater
same,crossing of the epithelial barrier in the MDCK model,MDCK cells,cross the epithelial barrier relatively efficiently
same,permeation across MDCK cells compared with mannitol,MDCK cells,at least ten times greater
same,Cell Permeation Coefficient (cm/sec) Caco-2,Caco-2 cells [1],3.7e-05 cm/s
same,"Permeation Coefficient (cm/sec) Mean ± SD, where applicable",Caco-2 cells [1],3e-05 cm/s
same,"Total Permeation Coefficient (cm/sec) Mean ± SD, where applicable, Caco-2",Caco-2 cells [1],2.8 ± 1.8 × 10^−5 cm/sec
same,"cell permeation coefficient compared with mannitol, Caco-2",Caco-2 cells [1],at least ten times greater
same,crossing of the epithelial barrier in the Caco-2 model,Caco-2 cells [1],cross the epithelial barrier relatively efficiently
same,permeation across Caco-2 cells compared with mannitol,Caco-2 cells [1],at least ten times greater
